This passage reports IC50 results from patent publication US11638707B2, “Substituted amino triazoles useful as chitinase inhibitors” (Molecure S.A., priority 2019, dated 2023).

One may read the IC50 as the midpoint of a concentration-inhibition curve.

In data set [1] the target is hERG channel (Homo sapiens (Human), UniProt Q12809). Briefly: Human ERG channel binding assay (fluorescence polarization). The following applies: Table 1; tracer displacement, 4 h at room temperature. The gist of the method: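 Serially diluted compounds were incubated with a hERG-containing membrane fraction and a high-affinity red-shifted fluorescent hERG ligand. Displacement of the tracer was read by fluorescence polarization, and IC50 values were derived from the concentration-response curves.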
Sequence of hERG channel (Q12809 whole entry): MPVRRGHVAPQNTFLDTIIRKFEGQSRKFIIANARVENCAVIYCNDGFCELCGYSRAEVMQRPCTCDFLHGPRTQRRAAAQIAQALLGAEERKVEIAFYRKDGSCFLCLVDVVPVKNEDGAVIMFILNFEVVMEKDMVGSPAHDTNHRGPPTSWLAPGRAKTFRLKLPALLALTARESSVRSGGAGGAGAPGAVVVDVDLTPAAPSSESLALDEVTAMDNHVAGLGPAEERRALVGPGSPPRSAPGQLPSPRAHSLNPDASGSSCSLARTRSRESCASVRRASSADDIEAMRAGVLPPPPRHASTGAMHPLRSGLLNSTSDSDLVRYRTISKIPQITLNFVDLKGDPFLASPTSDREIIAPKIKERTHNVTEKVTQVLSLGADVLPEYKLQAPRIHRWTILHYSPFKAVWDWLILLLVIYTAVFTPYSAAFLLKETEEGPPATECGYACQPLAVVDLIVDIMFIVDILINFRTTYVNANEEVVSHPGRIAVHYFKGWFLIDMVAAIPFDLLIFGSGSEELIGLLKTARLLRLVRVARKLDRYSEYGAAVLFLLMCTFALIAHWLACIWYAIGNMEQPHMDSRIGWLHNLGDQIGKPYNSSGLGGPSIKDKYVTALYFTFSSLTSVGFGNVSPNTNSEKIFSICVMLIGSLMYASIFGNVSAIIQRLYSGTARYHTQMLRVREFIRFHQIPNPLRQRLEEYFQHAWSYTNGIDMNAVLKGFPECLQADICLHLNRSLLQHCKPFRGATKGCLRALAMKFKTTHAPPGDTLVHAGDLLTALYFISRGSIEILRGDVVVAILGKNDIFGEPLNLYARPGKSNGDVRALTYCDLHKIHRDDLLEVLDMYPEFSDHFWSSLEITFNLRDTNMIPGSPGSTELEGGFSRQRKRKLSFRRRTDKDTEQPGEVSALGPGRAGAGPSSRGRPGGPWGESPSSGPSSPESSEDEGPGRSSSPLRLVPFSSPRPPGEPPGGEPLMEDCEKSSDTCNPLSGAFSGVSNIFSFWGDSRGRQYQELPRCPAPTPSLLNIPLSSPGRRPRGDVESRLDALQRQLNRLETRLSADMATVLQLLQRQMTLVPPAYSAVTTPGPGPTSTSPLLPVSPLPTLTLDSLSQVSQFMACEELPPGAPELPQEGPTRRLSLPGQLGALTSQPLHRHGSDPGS

The target of data set [2] is recombinant human AMCase (Homo sapiens (Human), UniProt Q9BZP6). As to the kind of experiment: Human AMCase activity assay. In kind it is biochemical. The following applies: citrate buffer pH 5.2, 37° C., 60 minutes, read-out: hAMCase, IC50. A digest of the protocol: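 Recombinant hAMCase hydrolysed 4-methylumbelliferyl β-D-N,N′-diacetylchitobioside in citrate buffer pH 5.2, run 60 min at 37 °C in the dark with shaking. Released 4MU fluorescence was read at 460 nm under basic pH, and IC50 values were fitted from the compound dilutions.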
Sequence of recombinant human AMCase (Q9BZP6 22-476): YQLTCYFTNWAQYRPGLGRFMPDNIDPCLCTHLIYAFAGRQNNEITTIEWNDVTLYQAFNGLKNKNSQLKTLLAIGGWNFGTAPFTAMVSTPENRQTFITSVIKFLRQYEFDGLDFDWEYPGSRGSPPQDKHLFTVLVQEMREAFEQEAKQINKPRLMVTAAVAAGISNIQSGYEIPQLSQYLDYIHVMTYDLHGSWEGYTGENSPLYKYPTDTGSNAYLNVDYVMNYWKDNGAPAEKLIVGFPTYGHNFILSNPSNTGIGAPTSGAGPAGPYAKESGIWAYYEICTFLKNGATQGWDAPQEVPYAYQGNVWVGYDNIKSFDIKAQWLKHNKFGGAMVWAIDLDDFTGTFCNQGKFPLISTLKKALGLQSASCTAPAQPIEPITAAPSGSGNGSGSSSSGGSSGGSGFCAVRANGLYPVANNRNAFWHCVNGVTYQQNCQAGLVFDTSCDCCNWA

The target in data set [3] is recombinant human CHIT1 (Homo sapiens (Human), UniProt Q13231). Briefly: Human CHIT1 activity assay. The class given is biochemical. The following applies: recombinant human CHIT1, citrate buffer pH 5.2, 37° C., 60 minutes; read-out: hCHIT1, IC50. The gist of the method:
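Recombinant human CHIT1 hydrolysed 4-methylumbelliferyl β-D-N,N′,N″-triacetylchitotriose in citrate buffer, pH 5.2, for 60 minutes at 37° C in the dark with shaking. Released 4MU was read by fluorescence at 460 nm under basic pH; IC50 values were calculated from dilution series.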

Sequence of recombinant human CHIT1 (Q13231 22-466): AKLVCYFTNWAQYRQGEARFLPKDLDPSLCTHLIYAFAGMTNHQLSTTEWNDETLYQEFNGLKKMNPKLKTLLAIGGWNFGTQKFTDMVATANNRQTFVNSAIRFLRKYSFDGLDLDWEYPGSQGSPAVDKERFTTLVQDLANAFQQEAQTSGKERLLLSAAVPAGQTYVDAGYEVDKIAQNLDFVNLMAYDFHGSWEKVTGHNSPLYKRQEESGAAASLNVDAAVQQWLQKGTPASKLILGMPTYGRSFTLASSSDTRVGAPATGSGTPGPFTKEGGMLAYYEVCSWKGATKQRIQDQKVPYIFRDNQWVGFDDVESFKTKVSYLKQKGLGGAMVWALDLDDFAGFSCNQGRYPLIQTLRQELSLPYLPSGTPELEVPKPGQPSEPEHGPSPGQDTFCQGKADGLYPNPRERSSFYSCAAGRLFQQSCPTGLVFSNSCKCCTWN

Consider `Nc1nnc(N2CCC(N3C[C@H](C(=O)NC4CC4)OC[C@@H]3Cc3ccc(Cl)cc3)CC2)[nH]1` [Example 24, (2R,5S)-4-(1-(5-amino-4H-1,2,4-triazol-3-yl)piperidin-4-yl)-5-(4-chlorobenzyl)-N-cyclopropylmorpholine-2-carboxamide 2,2,2-trifluoroacetate], for which the IC50 was over 100000 nM in data set [1], under 100 nM in data set [2] and under 100 nM in data set [3].

Consider `Nc1nnc(N2CCC(N3C[C@H](Cn4ccnc4)OC[C@@H]3Cc3ccc(Cl)cc3)CC2)[nH]1` [Example 47, 5-(4-((2R,5S)-2-((1H-imidazol-1-yl)methyl)-5-(4-chlorobenzyl)morpholino)-piperidin-1-yl)-4H-1,2,4-triazol-3-amine 2,2,2-trifluoroacetate], for which the results for the 50% inhibitory concentration (IC50) in data set [1], in data set [2] and in data set [3] were 10000 to 25000 nM, under 100 nM and under 100 nM, respectively.

As to `Nc1nnc(N2CCC(N3C[C@H](CN4CCCC4)OC[C@@H]3Cc3ccc(Cl)cc3)CC2)[nH]1` [Example 28, 5-(4-((2S,5S)-5-(4-chlorobenzyl)-2-(pyrrolidin-1-ylmethyl)morpholino)piperidin-1-yl)-4H-1,2,4-triazol-3-amine 2,2,2-trifluoroacetate], the values for the IC50 in data set [1], in data set [2] and in data set [3] were over 100000 nM, under 100 nM and under 100 nM, respectively.

With `Cc1cc([C@H]2CN(C3CCN(c4nnc(N)[nH]4)CC3)[C@@H](Cc3ccc(Cl)cc3)CO2)on1` [Example 22, 5-(4-((2R,5S)-5-(4-chlorobenzyl)-2-(3-methylisoxazol-5-yl)morpholino)piperidin-1-yl)-4H-1,2,4-triazol-3-amine 2,2,2-trifluoroacetate], the IC50 is over 100000 nM in data set [1], under 100 nM in data set [2] and under 100 nM in data set [3].

Take `Nc1nnc(N2CCC(N3C[C@H](Cn4cc(F)cn4)OC[C@@H]3Cc3ccc(Cl)cc3)CC2)[nH]1` [Example 36, 5-(4-((2R,5S)-5-(4-chlorobenzyl)-2-((4-fluoro-1H-pyrazol-1-yl)methyl)-morpholino)piperidin-1-yl)-4H-1,2,4-triazol-3-amine 2,2,2-trifluoroacetate]: the IC50 is 10000 to 25000 nM in data set [1], under 100 nM in data set [2] and under 100 nM in data set [3].

Turning to `Cc1nc([C@H]2CN(C3CCN(c4nnc(N)[nH]4)CC3)[C@@H](Cc3ccc(Cl)cc3)CO2)oc1C` [Example 50, 5-(4-((2R,5S)-5-(4-chlorobenzyl)-2-(4,5-dimethyloxazol-2-yl)morpholino)piperidin-1-yl)-4H-1,2,4-triazol-3-amine 2,2,2-trifluoroacetate], the IC50 in data set [1] was 1000 to 10000 nM; in data set [2] it was under 100 nM; in data set [3], under 100 nM.

In the case of `Nc1nnc(N2CCC(N3C[C@@H]4CC(F)(F)CN4C[C@@H]3Cc3ccc(C(F)(F)F)cc3)CC2)[nH]1` [Example 78, 5-(4-((3S,8aS)-7,7-difluoro-3-(4-(trifluoromethyl)benzyl)hexahydropyrrolo[1,2-a]pyrazin-2(1H)-yl)piperidin-1-yl)-4H-1,2,4-triazol-3-amine 2,2,2-trifluoroacetate], the IC50 in data set [1] is 10000 to 25000 nM; in data set [2], under 100 nM; in data set [3] it was under 100 nM.

As for `CS(=O)(=O)CCNC(=O)[C@H]1CN(C2CCN(c3nnc(N)[nH]3)CC2)[C@@H](Cc2ccc(Cl)cc2)CO1` [Example 45, (2R,5S)-4-(1-(5-amino-4H-1,2,4-triazol-3-yl)piperidin-4-yl)-5-(4-chlorobenzyl)-N-(2-(methylsulfonyl)ethyl)morpholine-2-carboxamide 2,2,2-trifluoroacetate], the half-inhibitory concentration (IC50) was over 100000 nM in data set [1], under 100 nM in data set [2] and under 100 nM in data set [3].

Take `CC(C)NC(=O)[C@H]1CN(C2CCN(c3nnc(N)[nH]3)CC2)[C@@H](Cc2ccc(Cl)cc2)CO1` [Example 65, (2R,5S)-4-(1-(5-amino-4H-1,2,4-triazol-3-yl)piperidin-4-yl)-5-(4-chlorobenzyl)-N-isopropylmorpholine-2-carboxamide 2,2,2-trifluoroacetate]: the 50% inhibitory concentration (IC50) in data set [1] is over 100000 nM; in data set [2], under 100 nM; in data set [3] it was 100 to 1000 nM.

`Nc1nnc(N2CCC(N3C[C@H]([C@@H](O)C(F)(F)F)OC[C@@H]3Cc3ccc(Cl)cc3)CC2)[nH]1` [Example 17, (R)-1-((2R,5S)-4-(1-(5-amino-4H-1,2,4-triazol-3-yl)piperidin-4-yl)-5-(4-chlorobenzyl)morpholin-2-yl)-2,2,2-trifluoroethanol 2,2,2-trifluoroacetate]: the concentration for half-maximal inhibition (IC50) in data set [1] is 25000 to 100000 nM; in data set [2], under 100 nM; in data set [3] it was under 100 nM.

With `Nc1nnc(N2CCC(N3C[C@H](CF)OC[C@@H]3Cc3ccc(Cl)cc3)CC2)[nH]1` [Example 3, 5-(4-((2R,5S)-5-(4-chlorobenzyl)-2-(fluoromethyl)morpholino)piperidin-1-yl)-4H-1,2,4-triazol-3-amine 2,2,2-trifluoroacetate], the 50% inhibitory concentration (IC50) in data set [1] is over 100000 nM; in data set [2], under 100 nM; in data set [3], under 100 nM.
